Measurements reported in the CheMixHub viscosity set.

Assay: xn = mol fraction of the nth substance listed

COc1ccccc1O + CN(C)c1ccccc1
303.15 K, 101 kPa
Settings	viscosity [mPa·s]
x2 = 0.1	3.71
x2 = 0.2	3.21
x2 = 0.3	2.84
x2 = 0.4	2.46
x2 = 0.5	2.16
x2 = 0.6	1.89
x2 = 0.7	1.65
x2 = 0.8	1.46
x2 = 0.9	1.31

O=C1CCCCO1 + CNC(C)=O
viscosity [mPa·s], 101 kPa
Settings	x2 = 0.0818	x2 = 0.2377	x2 = 0.3396	x2 = 0.4641	x2 = 0.5194	x2 = 0.717	x2 = 0.7962	x2 = 0.8929	x2 = 0.9596
303.15 K	2.648	2.494	2.393	2.352	2.389	2.607	2.782	3.108	3.512
308.15 K	2.412	2.288	2.199	2.203	2.222	2.422	2.583	2.896	3.125
313.15 K	2.204	2.101	2.06	2.021	2.023	2.165	2.304	2.559	2.765
318.15 K	2.02	1.916	1.862	1.843	1.862	1.994	2.111	2.3	2.491

COc1ccccc1O + CNc1ccccc1
303.15 K, 101 kPa
Settings	viscosity [mPa·s]
x2 = 0.1	4
x2 = 0.2	3.72
x2 = 0.3	3.36
x2 = 0.4	3.03
x2 = 0.5	2.76
x2 = 0.6	2.44
x2 = 0.7	2.22
x2 = 0.8	1.99
x2 = 0.9	1.72

C1COCCO1 + CO
Settings	viscosity [mPa·s]
293.15 K, 101 kPa, x2 = 0.2465	0.9992
293.15 K, 101 kPa, x2 = 0.3957	0.8686
293.15 K, 101 kPa, x2 = 0.5458	0.7639
293.15 K, 101 kPa, x2 = 0.6558	0.6972
293.15 K, 101 kPa, x2 = 0.7331	0.6579
293.15 K, 101 kPa, x2 = 0.8062	0.6268
293.15 K, 101 kPa, x2 = 0.8648	0.6069
293.15 K, 101 kPa, x2 = 0.9198	0.5935
293.15 K, 101 kPa, x2 = 0.9635	0.5877
293.15 K, 101.3 kPa, x2 = 0.1975	1.045
293.15 K, 101.3 kPa, x2 = 0.3447	0.9049
293.15 K, 101.3 kPa, x2 = 0.4743	0.8065
293.15 K, 101.3 kPa, x2 = 0.5836	0.7327
293.15 K, 101.3 kPa, x2 = 0.6782	0.6805
293.15 K, 101.3 kPa, x2 = 0.7588	0.6441
293.15 K, 101.3 kPa, x2 = 0.8312	0.6135
293.15 K, 101.3 kPa, x2 = 0.8936	0.5998
293.15 K, 101.3 kPa, x2 = 0.9503	0.59
298.15 K, 101 kPa, x1 = 0.3	0.6148
298.15 K, 101 kPa, x2 = 0.8474	0.5684
298.15 K, 101 kPa, x2 = 0.9275	0.5488
298.15 K, 101 kPa, x2 = 0.9636	0.5589
298.15 K, 101.3 kPa, x2 = 0.1975	0.9612
298.15 K, 101.3 kPa, x2 = 0.3447	0.8454
298.15 K, 101.3 kPa, x2 = 0.4743	0.7506
298.15 K, 101.3 kPa, x2 = 0.5836	0.6825
298.15 K, 101.3 kPa, x2 = 0.6782	0.6352
298.15 K, 101.3 kPa, x2 = 0.7588	0.6047
298.15 K, 101.3 kPa, x2 = 0.8312	0.578
298.15 K, 101.3 kPa, x2 = 0.9503	0.5443
303.15 K, 101 kPa, x2 = 0.2218	0.8759
303.15 K, 101 kPa, x2 = 0.4075	0.7425
303.15 K, 101 kPa, x2 = 0.5478	0.6573
303.15 K, 101 kPa, x2 = 0.6544	0.6056
303.15 K, 101 kPa, x2 = 0.7387	0.5694
303.15 K, 101 kPa, x2 = 0.8089	0.5455
303.15 K, 101 kPa, x2 = 0.8164	0.5434
303.15 K, 101 kPa, x2 = 0.8671	0.5288
303.15 K, 101 kPa, x2 = 0.9617	0.5105
303.15 K, 101.3 kPa, x2 = 0.1975	0.8931
303.15 K, 101.3 kPa, x2 = 0.3447	0.778
303.15 K, 101.3 kPa, x2 = 0.4743	0.6981
303.15 K, 101.3 kPa, x2 = 0.5836	0.6349
303.15 K, 101.3 kPa, x2 = 0.6782	0.5919
303.15 K, 101.3 kPa, x2 = 0.7588	0.5568
303.15 K, 101.3 kPa, x2 = 0.8312	0.5316
303.15 K, 101.3 kPa, x2 = 0.8936	0.5157
303.15 K, 101.3 kPa, x2 = 0.9503	0.5063
303.15 K, 101.33 kPa, x2 = 0.225	0.877
303.15 K, 101.33 kPa, x2 = 0.4115	0.733
303.15 K, 101.33 kPa, x2 = 0.662	0.603
303.15 K, 101.33 kPa, x2 = 0.923	0.52
308.15 K, 101.3 kPa, x2 = 0.1975	0.831
308.15 K, 101.3 kPa, x2 = 0.3447	0.7262
308.15 K, 101.3 kPa, x2 = 0.4743	0.6503
308.15 K, 101.3 kPa, x2 = 0.5836	0.593
308.15 K, 101.3 kPa, x2 = 0.6782	0.5507
308.15 K, 101.3 kPa, x2 = 0.7588	0.52
308.15 K, 101.3 kPa, x2 = 0.8312	0.497
308.15 K, 101.3 kPa, x2 = 0.9503	0.4725
313.15 K, 101 kPa, x2 = 0.2218	0.7572
313.15 K, 101 kPa, x2 = 0.2465	0.7401
313.15 K, 101 kPa, x2 = 0.4075	0.6436
313.15 K, 101 kPa, x2 = 0.5458	0.5763
313.15 K, 101 kPa, x2 = 0.6544	0.5294
313.15 K, 101 kPa, x2 = 0.7387	0.499
313.15 K, 101 kPa, x2 = 0.8089	0.4782
313.15 K, 101 kPa, x2 = 0.8671	0.4627
313.15 K, 101 kPa, x2 = 0.9635	0.446
323.15 K, 101 kPa, x2 = 0.2465	0.6508
323.15 K, 101 kPa, x2 = 0.3957	0.5742
323.15 K, 101 kPa, x2 = 0.5458	0.5093
323.15 K, 101 kPa, x2 = 0.6558	0.4701
323.15 K, 101 kPa, x2 = 0.7331	0.4449
323.15 K, 101 kPa, x2 = 0.8062	0.4249
323.15 K, 101 kPa, x2 = 0.8648	0.4107
323.15 K, 101 kPa, x2 = 0.9198	0.4003
323.15 K, 101 kPa, x2 = 0.9635	0.3949
